Values of other authors, collected in patent US20110123555A1, “PREPARATION AND UTILITY OF CCR5 INHIBITORS” (AUSPEX PHARMACEUTICALS, INC., priority 2006, published 2011).

Tested on: 200 clinically-derived pseudoviruses
Details: half of which are derived from viruses resistant to existing drug classes

## Cc1nnc(C(C)C)n1C1CC2CCC(C1)N2CCC(NC(=O)C1CCC(F)(F)CC1)c1ccccc1 (stereo not shown) [Maraviroc]
  active in vitro against clinically-derived pseudoviruses: active
